Values of other authors, collected in patent US11147800B2 (Race Oncology Ltd., priority 2013, dated 2021).
Structures can show the parent of a compound that is named as a salt. Each block holds one compound with its values, some of them ahead of it.

Columns and labels:
[1] = test system: telomerase-expressing cells and ALT-positive cell lines
[2] = test system: colon 26, Lewis lung, Ridgway osteosarcoma, B16, Lieberman plasma cell, P388 or L1210 cancer cells
L1210 leukemia cells = conditions: typical of inhibition of DNA topoisomerase II
[3] = not given; remark: listed apart in the source
[4] = test system: hepatic microsomal enzymes; conditions: in vitro
[5] = preclinical
[6] = not given; remark: listed apart in the source
[7] = not given; remark: listed apart in the source
[8] = not given; remark: listed apart in the source
[9] = biological target: glycogen synthase kinase-3β (GSK-3β) (Homo sapiens, UniProt P49841)
[10] = local injection
[11] = single dose study, the last study
[12] = single dose study, triphasic elimination, second study

Chain of glycogen synthase kinase-3β (GSK-3β) (P49841 whole entry, species assumed): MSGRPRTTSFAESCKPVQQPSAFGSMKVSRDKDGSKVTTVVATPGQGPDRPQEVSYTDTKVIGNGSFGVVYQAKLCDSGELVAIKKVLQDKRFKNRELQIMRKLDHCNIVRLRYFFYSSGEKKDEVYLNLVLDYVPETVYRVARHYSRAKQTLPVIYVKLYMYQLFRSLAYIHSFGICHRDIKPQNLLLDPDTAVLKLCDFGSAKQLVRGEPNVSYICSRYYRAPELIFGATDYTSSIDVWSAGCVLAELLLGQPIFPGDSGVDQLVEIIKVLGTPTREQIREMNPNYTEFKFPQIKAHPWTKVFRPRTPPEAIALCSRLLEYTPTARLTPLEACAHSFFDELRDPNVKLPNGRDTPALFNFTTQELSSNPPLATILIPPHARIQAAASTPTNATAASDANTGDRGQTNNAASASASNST

SMILES: C(=N\NC1=NCCN1)/c1cccc2cc3c(/C=N/NC4=NCCN4)cccc3cc12 [Formula (III)]
DNA damage response (γH2AX foci partially co-localized at the telomere) [1]: consistently provokes a DNA damage response

SMILES: C(=NNC1=NCCN1)c1c2ccccc2c(C=NNC2=NCCN2)c2ccccc12 [bisantrene, 9,10-anthracenedicarboxaldehyde bis[(4,5-dihydro-1H-imidazol-2-yl)hydrazine] dihydrochloride]
minimal effective in vivo dose for macrophage activation (macrophages): 25 mg/kg | antitumor activity in murine tumor models ([2]; P-388 leukemia and B-16 melanoma): antitumor activity | activity in cancer models, parenteral ([2]; i.v., i.p. or s.c., colon 26, Lewis lung, Ridgway osteosarcoma, B16, Lieberman plasma cell, P388 or L1210): effective | activity in cancer models, oral ([2]; orally): inactive | cross resistance with adriamycin and mitoxantrone (Human tumor cells): lack of cross resistance | sensitivity in in vitro colony-forming assays (Human tumor cells; breast, ovarian, renal, small cell and non-small cell lung, lymphoma, AML, melanoma, gastric, adrenal, head and neck cancer): sensitive | activity in metastatic breast cancer (Phase II, heavily pretreated patients): active | activity in phase I clinical trials (hepatocellular cancer and hypernephroma (one patient each), lymphoma, myeloma, melanoma, renal cancer, bladder and lung tumors): showed activity | activity in refractory malignant melanoma (phase II): inactive | activity in human colon cancer (tested in vitro or in vivo (phase II advanced colorectal cancer)): inactive | DNA strand breaks (L1210 leukemia cells): induce protein-associated DNA strand breaks | urinary excretion of the dose ([3]; 72-hr infusion study, in 24 hr): 4.6% | triphasic elimination, first phase (given as clearances) [3, 11]: 0.1 h | triphasic elimination, second phase (given as clearances) [3, 11]: 1.9 h | triphasic elimination, third phase (given as clearances) [3, 11]: 43.9 h | t½α [3, 12]: 3 min | t½β [3, 12]: 1 h | t½γ [3, 12]: 8 h | substrate for hepatic microsomal enzymes [4]: substrate | Brain levels [5]: extremely low | tissues with the highest concentration (in descending order) [5]: kidney, liver, gallbladder, spleen, lung, and heart | major dose-limiting toxic effect ([6]; in vivo): leukopenia | DLT ([6]; phase I doses between 190-430 mg/m^2 q3w): neutropenia | local tissue toxicity if extravasated ([7]; human, in vivo): potent vesicant | patients reporting malaise ([7]; human, in vivo): up to one-half of patients | cardiotoxicity compared with mitoxantrone or doxorubicin ([7]; phase III trial): less cardiotoxic | cardiotoxicity in animals ([8]; animals): not cardiotoxic | toxic findings ([8]; dogs and monkeys, high doses): leukopenia, anorexia, diarrhea, injection site necrosis, enterocolitis, muscle degeneration, and pulmonary edema | platelet aggregation (Human Platelets): inhibit platelet aggregation

concentration for inhibition of GSK-3β [9]: 5 to 50 nM
SMILES: CN1C(=O)/C(=C2/C(=O)Nc3ccccc32)c2ccccc21 [meisoindigo]

SMILES: O=C([O-])O.[Na+] [sodium bicarbonate]
bisantrene extravasation necrosis [10]: blocked
